Test results as given in ChEMBL document CHEMBL3991601, “The target landscape of clinical kinase drugs” (Science, 2017).
Calls of active or inactive are those of the source. Cut-off read from the data, not from the text of the source, for most assays here: actives have a measured Kd and inactives only a lower limit.

Legend:
[1] = biological target: RAC-gamma serine/threonine-protein kinase (Homo sapiens, UniProt Q9Y243)
[2] = biological target: T1, Breakpoint cluster region protein (Homo sapiens, UniProt P11274)
T1 sequence (P11274 whole entry): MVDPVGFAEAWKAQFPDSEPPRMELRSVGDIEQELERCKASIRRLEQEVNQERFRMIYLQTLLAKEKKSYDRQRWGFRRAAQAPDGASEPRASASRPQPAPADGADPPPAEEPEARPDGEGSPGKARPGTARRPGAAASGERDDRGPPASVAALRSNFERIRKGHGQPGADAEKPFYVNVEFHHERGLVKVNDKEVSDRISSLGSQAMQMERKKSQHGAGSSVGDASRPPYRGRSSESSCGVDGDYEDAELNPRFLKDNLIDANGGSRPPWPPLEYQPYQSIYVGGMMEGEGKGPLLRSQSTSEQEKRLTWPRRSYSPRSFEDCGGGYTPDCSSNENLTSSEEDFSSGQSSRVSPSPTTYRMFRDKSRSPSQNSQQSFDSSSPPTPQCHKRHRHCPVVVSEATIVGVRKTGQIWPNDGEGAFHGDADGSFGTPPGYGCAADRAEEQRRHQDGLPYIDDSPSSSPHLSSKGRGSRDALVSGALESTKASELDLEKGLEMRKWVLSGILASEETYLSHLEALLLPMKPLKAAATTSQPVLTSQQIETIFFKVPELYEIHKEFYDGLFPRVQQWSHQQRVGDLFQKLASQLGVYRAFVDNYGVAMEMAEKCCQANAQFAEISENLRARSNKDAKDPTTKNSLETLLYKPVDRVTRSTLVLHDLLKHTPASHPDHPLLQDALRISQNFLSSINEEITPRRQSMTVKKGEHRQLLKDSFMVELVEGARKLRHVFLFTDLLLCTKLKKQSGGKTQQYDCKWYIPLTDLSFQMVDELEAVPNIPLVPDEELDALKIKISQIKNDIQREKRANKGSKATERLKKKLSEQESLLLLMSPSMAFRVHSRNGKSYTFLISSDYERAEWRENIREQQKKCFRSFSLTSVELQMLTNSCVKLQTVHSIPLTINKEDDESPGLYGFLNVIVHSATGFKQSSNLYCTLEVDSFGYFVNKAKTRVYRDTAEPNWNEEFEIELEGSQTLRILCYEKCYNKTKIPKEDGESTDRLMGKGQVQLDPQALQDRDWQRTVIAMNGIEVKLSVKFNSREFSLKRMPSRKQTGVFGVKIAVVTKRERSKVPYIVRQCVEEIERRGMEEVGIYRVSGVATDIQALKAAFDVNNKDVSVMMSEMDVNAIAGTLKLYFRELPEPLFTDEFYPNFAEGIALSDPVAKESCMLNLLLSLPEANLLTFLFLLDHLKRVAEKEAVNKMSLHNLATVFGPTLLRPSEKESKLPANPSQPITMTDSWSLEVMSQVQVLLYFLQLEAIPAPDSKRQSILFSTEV

[3] = biological target: Bone morphogenetic protein receptor type-1A (Homo sapiens, UniProt P36894)
Bone morphogenetic protein receptor type-1A, sequence (P36894 whole entry): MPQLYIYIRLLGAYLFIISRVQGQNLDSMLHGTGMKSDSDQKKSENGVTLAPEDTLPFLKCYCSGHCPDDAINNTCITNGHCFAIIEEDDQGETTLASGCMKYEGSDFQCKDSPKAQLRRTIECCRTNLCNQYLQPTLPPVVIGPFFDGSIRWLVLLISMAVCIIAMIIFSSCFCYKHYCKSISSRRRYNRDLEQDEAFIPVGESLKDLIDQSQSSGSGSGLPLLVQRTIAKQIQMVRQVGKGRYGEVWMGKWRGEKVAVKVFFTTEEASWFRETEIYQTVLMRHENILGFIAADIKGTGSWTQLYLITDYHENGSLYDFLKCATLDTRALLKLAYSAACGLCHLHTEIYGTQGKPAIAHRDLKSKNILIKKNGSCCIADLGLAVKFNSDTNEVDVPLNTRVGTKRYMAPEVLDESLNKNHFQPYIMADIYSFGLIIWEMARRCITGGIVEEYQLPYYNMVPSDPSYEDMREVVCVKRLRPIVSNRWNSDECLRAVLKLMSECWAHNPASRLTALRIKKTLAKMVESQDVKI

[4] = biological target: Cyclin-dependent kinase 12 (Homo sapiens, UniProt Q9NYV4)
[5] = biological target: Cyclin-dependent kinase 13 (Homo sapiens, UniProt Q14004)
Cyclin-dependent kinase 13, sequence (Q14004 whole entry): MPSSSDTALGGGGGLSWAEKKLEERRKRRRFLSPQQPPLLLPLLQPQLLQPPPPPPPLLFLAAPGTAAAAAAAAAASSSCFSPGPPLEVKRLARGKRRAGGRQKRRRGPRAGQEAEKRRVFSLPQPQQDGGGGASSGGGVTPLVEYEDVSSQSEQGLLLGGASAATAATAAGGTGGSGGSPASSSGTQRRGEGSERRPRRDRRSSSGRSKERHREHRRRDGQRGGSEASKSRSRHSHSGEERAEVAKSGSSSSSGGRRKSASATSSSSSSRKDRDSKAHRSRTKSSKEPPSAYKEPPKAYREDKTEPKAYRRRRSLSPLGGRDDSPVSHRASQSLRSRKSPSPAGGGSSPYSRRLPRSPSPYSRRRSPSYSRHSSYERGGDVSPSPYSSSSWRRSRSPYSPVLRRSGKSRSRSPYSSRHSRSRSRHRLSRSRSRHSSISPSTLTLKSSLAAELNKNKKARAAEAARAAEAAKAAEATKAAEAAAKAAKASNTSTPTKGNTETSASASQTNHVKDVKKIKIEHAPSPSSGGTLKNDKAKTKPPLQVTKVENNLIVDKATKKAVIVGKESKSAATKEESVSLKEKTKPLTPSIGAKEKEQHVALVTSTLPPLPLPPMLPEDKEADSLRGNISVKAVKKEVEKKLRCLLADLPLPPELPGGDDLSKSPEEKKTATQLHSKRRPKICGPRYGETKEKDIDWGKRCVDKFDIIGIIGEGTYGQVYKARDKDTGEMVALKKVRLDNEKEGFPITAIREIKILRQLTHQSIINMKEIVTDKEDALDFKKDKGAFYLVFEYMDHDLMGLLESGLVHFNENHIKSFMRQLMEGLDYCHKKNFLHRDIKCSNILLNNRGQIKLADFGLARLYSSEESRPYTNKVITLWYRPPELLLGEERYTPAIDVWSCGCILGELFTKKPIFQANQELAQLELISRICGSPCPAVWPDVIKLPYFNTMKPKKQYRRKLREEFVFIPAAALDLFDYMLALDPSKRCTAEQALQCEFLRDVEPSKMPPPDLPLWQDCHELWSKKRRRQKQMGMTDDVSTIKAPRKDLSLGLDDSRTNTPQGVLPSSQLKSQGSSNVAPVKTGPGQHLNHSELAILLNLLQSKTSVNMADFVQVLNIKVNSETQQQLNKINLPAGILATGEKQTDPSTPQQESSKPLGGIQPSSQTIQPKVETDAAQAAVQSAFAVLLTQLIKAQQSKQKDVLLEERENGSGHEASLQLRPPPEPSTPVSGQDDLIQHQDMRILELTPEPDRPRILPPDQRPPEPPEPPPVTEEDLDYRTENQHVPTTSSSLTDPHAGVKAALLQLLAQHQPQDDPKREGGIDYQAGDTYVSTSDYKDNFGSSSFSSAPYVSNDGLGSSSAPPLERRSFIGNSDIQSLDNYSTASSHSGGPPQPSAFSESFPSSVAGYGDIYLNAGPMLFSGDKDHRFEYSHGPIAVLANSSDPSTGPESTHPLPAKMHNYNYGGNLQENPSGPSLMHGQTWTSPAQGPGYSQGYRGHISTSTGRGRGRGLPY

[6] = biological target: T2, Serine/threonine-protein kinase Chk1 (Homo sapiens, UniProt O14757)
T2 sequence (O14757 whole entry): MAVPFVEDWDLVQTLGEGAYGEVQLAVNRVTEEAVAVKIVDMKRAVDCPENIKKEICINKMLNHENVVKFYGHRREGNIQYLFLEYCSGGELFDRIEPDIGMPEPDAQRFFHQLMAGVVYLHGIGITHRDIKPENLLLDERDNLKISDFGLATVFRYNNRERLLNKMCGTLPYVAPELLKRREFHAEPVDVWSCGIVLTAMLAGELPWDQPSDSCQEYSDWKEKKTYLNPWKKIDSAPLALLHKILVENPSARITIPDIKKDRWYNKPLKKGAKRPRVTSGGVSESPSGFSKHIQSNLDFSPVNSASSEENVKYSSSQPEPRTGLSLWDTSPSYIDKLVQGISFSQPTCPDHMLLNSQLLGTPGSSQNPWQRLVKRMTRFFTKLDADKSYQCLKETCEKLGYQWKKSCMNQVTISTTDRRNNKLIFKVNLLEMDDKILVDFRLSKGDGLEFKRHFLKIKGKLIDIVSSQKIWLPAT

[7] = biological target: Casein kinase I isoform gamma-1 (Homo sapiens, UniProt Q9HCP0)
Casein kinase I isoform gamma-1, sequence (Q9HCP0 whole entry, canonical isoform): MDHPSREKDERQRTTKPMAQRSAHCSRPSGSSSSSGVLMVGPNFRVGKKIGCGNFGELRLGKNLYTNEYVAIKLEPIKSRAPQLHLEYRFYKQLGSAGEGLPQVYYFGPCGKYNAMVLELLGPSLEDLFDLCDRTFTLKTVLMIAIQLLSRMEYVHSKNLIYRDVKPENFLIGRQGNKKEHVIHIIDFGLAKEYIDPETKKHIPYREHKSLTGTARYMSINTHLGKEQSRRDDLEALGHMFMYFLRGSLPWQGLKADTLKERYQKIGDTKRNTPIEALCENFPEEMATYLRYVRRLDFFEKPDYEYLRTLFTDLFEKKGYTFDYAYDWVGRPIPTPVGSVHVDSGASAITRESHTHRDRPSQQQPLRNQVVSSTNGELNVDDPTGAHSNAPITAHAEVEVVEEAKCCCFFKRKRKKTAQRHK

Ephrin type-A receptor 4 = Ephrin type-A receptor 4 (Homo sapiens, UniProt P54764)
[8] = biological target: Glycogen synthase kinase-3 alpha (Homo sapiens, UniProt P49840)
[9] = biological target: Inosine-5'-monophosphate dehydrogenase 2 (Homo sapiens, UniProt P12268)
[10] = biological target: Tyrosine-protein kinase JAK1 (Homo sapiens, UniProt P23458)
Tyrosine-protein kinase JAK1, sequence (P23458 whole entry, the tested form may be a part): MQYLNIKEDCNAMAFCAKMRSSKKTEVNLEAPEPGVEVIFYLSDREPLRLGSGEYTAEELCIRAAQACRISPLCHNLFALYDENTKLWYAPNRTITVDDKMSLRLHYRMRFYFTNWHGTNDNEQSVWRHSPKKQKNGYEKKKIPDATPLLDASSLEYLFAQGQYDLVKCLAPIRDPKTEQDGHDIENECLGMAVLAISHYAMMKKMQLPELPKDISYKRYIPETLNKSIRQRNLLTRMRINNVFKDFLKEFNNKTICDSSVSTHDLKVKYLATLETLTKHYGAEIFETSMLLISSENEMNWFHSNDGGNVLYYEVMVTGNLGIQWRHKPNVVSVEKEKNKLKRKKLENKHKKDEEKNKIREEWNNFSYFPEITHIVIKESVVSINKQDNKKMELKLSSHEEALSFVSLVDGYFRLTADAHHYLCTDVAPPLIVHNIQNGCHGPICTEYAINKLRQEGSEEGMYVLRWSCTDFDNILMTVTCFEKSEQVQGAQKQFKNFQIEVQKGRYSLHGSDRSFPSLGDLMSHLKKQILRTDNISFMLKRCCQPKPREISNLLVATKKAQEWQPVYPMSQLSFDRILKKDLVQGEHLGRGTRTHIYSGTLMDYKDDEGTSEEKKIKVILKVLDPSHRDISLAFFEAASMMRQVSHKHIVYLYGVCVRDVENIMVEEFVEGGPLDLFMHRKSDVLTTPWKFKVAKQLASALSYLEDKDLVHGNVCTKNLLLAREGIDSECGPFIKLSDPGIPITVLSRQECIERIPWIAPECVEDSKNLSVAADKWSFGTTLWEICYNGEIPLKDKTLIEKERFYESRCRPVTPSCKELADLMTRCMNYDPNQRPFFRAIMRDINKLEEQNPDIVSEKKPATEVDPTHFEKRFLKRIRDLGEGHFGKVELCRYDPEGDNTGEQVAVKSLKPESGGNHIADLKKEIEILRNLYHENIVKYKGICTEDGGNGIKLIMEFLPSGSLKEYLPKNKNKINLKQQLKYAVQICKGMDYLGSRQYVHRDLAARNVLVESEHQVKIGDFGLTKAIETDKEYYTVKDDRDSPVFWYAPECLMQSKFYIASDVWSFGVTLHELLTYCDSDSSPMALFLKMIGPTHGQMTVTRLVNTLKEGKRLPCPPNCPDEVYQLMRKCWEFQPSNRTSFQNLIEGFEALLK

LIM domain kinase 2 = LIM domain kinase 2 (Homo sapiens, UniProt P53671)
LIM domain kinase 2, sequence (P53671 whole entry, the tested form may be a part): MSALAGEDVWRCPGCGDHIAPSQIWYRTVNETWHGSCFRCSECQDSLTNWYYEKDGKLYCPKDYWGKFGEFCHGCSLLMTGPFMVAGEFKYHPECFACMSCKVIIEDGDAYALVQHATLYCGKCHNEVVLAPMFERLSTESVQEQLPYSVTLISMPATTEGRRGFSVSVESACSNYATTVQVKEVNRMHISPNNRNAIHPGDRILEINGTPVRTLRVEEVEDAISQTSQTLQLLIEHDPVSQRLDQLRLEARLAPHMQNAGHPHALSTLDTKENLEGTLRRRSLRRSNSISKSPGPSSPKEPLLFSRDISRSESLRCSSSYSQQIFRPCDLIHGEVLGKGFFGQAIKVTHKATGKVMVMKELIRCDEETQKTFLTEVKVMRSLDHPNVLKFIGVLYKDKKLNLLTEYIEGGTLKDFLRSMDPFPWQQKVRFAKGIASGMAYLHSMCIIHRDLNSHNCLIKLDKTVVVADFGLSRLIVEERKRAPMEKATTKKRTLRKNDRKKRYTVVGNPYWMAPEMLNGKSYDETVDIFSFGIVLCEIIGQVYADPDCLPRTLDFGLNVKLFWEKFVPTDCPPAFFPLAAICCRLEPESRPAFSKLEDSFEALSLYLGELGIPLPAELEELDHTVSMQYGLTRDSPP

[11] = biological target: Mitogen-activated protein kinase 3 (Homo sapiens, UniProt P27361)
Mitogen-activated protein kinase 3, sequence (P27361 whole entry): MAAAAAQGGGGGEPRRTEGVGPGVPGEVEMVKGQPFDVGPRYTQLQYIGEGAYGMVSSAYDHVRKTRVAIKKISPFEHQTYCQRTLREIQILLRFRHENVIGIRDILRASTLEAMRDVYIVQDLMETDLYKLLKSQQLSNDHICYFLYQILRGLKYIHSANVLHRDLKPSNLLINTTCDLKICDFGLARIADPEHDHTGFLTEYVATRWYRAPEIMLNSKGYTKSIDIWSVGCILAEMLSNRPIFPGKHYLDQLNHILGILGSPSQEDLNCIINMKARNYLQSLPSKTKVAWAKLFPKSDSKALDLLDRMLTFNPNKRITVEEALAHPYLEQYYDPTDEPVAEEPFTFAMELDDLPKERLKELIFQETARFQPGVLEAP

[12] = biological target: Mitogen-activated protein kinase 8 (Homo sapiens, UniProt P45983)
[13] = biological target: cAMP-dependent protein kinase type II-alpha regulatory subunit (Homo sapiens, UniProt P13861)
cAMP-dependent protein kinase type II-alpha regulatory subunit, sequence (P13861 whole entry): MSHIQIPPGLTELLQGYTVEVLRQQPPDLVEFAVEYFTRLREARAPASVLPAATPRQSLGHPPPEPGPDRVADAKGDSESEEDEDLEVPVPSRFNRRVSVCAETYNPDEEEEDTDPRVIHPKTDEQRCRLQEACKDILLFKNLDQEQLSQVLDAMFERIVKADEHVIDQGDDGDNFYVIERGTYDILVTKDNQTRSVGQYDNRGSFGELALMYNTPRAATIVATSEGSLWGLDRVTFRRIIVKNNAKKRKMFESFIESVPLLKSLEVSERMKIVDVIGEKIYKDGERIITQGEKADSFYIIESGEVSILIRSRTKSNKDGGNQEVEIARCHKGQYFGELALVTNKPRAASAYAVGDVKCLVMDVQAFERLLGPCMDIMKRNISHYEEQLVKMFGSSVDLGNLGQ

[14] = biological target: GTP-binding nuclear protein Ran (Homo sapiens, UniProt P62826)
[15] = biological target: Ribosomal protein S6 kinase alpha-4 (Homo sapiens, UniProt O75676)
Note: in the data inactive means no Kd found up to 30 µM.

| Kd [1] | Kd [2] | Kd [3] | Kd [4] | Kd [5] | Kd [6] | Kd [7] | Kd (Ephrin type-A receptor 4) | Kd [8] | Kd [9] | Kd [10] | Kd (LIM domain kinase 2) | Kd [11] | Kd [12] | Kd [13] | Kd [14] | Kd [15] | SMILES |
| --- | --- | --- | --- | --- | --- | --- | --- | --- | --- | --- | --- | --- | --- | --- | --- | --- | --- |
| > 30 µM (inactive) | > 30 µM (inactive) | > 30 µM (inactive) | > 30 µM (inactive) | > 30 µM (inactive) | > 30 µM (inactive) | > 30 µM (inactive) | > 30 µM (inactive) | > 30 µM (inactive) | > 30 µM (inactive) | > 30 µM (inactive) | > 30 µM (inactive) | 0.16 µM (active) | > 30 µM (inactive) | > 30 µM (inactive) | > 30 µM (inactive) | > 30 µM (inactive) | CC(C)Nc1cc(-c2c[nH]c(C(=O)N[C@H](CO)c3cccc(Cl)c3)c2)c(Cl)cn1 [ULIXERTINIB] |
| > 30 µM (inactive) | > 30 µM (inactive) | > 30 µM (inactive) | > 30 µM (inactive) | > 30 µM (inactive) | > 30 µM (inactive) | > 30 µM (inactive) | > 30 µM (inactive) | > 30 µM (inactive) | > 30 µM (inactive) | > 30 µM (inactive) | > 30 µM (inactive) | > 30 µM (inactive) | > 30 µM (inactive) | > 30 µM (inactive) | > 30 µM (inactive) | > 30 µM (inactive) | CCCS(=O)(=O)Nc1ccc(F)c(C(=O)c2c[nH]c3ncc(-c4ccc(Cl)cc4)cc23)c1F [VEMURAFENIB] |
| > 30 µM (inactive) | > 30 µM (inactive) | > 30 µM (inactive) | > 30 µM (inactive) | > 30 µM (inactive) | > 30 µM (inactive) | > 30 µM (inactive) | > 30 µM (inactive) | > 30 µM (inactive) | > 30 µM (inactive) | > 30 µM (inactive) | > 30 µM (inactive) | > 30 µM (inactive) | > 30 µM (inactive) | > 30 µM (inactive) | > 30 µM (inactive) | > 30 µM (inactive) | CC[C@@H]1C(=O)N(C)c2cnc(Nc3ccc(C(=O)N[C@H]4CC[C@H](N5CCN(CC6CC6)CC5)CC4)cc3OC)nc2N1C(C)C [VOLASERTIB] |
| > 30 µM (inactive) | > 30 µM (inactive) | > 30 µM (inactive) | > 30 µM (inactive) | > 30 µM (inactive) | > 30 µM (inactive) | > 30 µM (inactive) | > 30 µM (inactive) | > 30 µM (inactive) | > 30 µM (inactive) | > 30 µM (inactive) | > 30 µM (inactive) | > 30 µM (inactive) | > 30 µM (inactive) | > 30 µM (inactive) | > 30 µM (inactive) | > 30 µM (inactive) | CCn1c(=O)c(-c2cc[nH]n2)cc2c(C)nc(N)nc21 [VOXTALISIB] |
| > 30 µM (inactive) | > 30 µM (inactive) | > 30 µM (inactive) | > 30 µM (inactive) | > 30 µM (inactive) | > 30 µM (inactive) | > 30 µM (inactive) | > 30 µM (inactive) | > 30 µM (inactive) | > 30 µM (inactive) | > 30 µM (inactive) | > 30 µM (inactive) | > 30 µM (inactive) | 0.844 µM (active) | > 30 µM (inactive) | > 30 µM (inactive) | > 30 µM (inactive) | O=C(Nc1ccc(-c2ccnc(Nc3ccc(N4CCOCC4)cc3)n2)cc1)C1CCCN1 (stereo not given) [XL-019] |
